Consider one molecule from patent US20230107186A1, “COBICISTAT FOR PREVENTION AND/OR TREATMENT OF CORONAVIRUS INFECTIONS” (priority 2020, published 2023).

In the assay the test system is S-protein. It is filed as cell-based, SARS-CoV-2.

Regarding `CC(C)c1nc(CN(C)C(=O)N[C@@H](CCN2CCOCC2)C(=O)N[C@H](CC[C@H](Cc2ccccc2)NC(=O)OCc2cncs2)Cc2ccccc2)cs1` [Cobicistat, 1,3-thiazol-5-ylmethyl [(2R,5R)-5-{[(2S)-2-({[(2-isopropyl-1,3-thiazol-4-yl)methyl](methyl)carbamoyl}amino)-4-(morpholin-4-yl)butanoyl]amino}-1,6-diphenylhexan-2-yl]carbamate], the S-protein levels result was “decreased” and the “concentration range with effect in western blot analysis” value is 5 to 10 µM.
